Earlier results, collected in patent US20050180940A1, “Protect against hair loss” (priority 2004, published 2005).

Tested on: common male-pattern baldness
Conditions: two daily topical applications, person, after 3-4 weeks

Substance: sucralfate
- Effect on common male-pattern baldness (hair appearance): appearance of hair in the otherwise bald lateral-frontal areas in the scalp
